Our source for the IC50 values is patent US9732075B2, “Benzimidazole-proline derivatives” (IDORSIA PHARMACEUTICALS LTD, priority 2012, dated 2017).

For one experiment, the target named is human orexin-1 receptor (Homo sapiens (Human), UniProt O43613). As to the kind of experiment: In vitro assay: intracellular calcium measurements (FLIPR), antagonistic activity. The experiment is classed as cell-based. As to conditions: CHO cells expressing human orexin-1 receptor, orexin-A agonist, geometric mean, read-out: IC50 Ox1. The gist of the method: (§1)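 hOX1R/hOX2R CHO cells, fluo-4 AM + 5 mM probenecid, 50 min 37 °C then 30 min RT. Cpd 120 min, then orexin-A 3 nM final; FLIPR peak height vs vehicle. IC50, geometric mean of repeats.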
Background: A change in cytosolic calcium serves as a functional read-out for many receptors and channels.

A further experiment has as its target human orexin-2 receptor (Homo sapiens (Human), UniProt O43614). The description is as above. The experiment is classed as cell-based. Particulars: CHO cells expressing human orexin-2 receptor, orexin-A agonist, geometric mean, read-out: IC50 Ox2. The gist of the method:
as §1

Chain of human orexin-1 receptor (O43613 whole entry): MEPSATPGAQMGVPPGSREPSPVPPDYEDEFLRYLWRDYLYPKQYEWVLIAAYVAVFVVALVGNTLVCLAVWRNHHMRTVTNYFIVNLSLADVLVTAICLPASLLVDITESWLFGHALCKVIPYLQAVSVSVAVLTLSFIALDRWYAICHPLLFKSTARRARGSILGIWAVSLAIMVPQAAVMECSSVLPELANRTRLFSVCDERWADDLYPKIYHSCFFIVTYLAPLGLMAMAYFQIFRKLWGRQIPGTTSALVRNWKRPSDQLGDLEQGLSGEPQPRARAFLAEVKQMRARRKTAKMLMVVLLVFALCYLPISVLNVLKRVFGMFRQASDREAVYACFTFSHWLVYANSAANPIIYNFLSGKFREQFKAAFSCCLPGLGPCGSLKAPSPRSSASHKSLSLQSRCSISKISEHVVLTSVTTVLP
Chain of human orexin-2 receptor (O43614 whole entry): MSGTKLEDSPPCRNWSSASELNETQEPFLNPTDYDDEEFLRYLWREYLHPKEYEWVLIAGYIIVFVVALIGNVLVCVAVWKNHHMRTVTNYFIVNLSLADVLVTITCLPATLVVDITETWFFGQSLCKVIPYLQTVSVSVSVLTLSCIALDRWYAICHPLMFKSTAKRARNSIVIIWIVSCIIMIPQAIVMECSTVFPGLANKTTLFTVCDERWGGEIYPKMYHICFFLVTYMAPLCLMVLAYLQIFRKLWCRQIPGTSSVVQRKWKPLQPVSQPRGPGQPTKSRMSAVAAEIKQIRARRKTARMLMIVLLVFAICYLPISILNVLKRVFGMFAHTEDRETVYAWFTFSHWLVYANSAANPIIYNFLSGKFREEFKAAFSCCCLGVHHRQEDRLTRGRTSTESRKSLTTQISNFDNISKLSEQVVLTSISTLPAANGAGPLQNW

Turning to `Cc1cc2nc([C@]3(C)CCCN3C(=O)c3ccccc3-c3ccc(F)cc3)[nH]c2cc1C` [Ex. 5.104], the IC50 amounted to 92 nM at human orexin-1 receptor and 97 nM at human orexin-2 receptor.
The matching figures for `C=C1C[C@@H](c2nc3cc(C)c(C)cc3[nH]2)N(C(=O)c2cc(Cl)ccc2-n2nccn2)C1` [Ex. 6.193]: 41 nM and 4 nM.
The matching figures for `CSc1cccc2nc([C@@H]3CCCN3C(=O)c3cncnc3-c3ccc(Cl)c(Cl)c3)[nH]c12` [Ex. 1.82]: 13 nM and 17 nM.
On the same counts, the results for `CO[C@H]1CN(C(=O)c2ccccc2-n2nccn2)C(C)(c2nc3c(C)c(Cl)ccc3[nH]2)C1` (stereo partly shown) [Ex. 3.45] are 16 nM and 19 nM.
As to `Cc1nc(C(=O)N2CCCC2c2nc3c(C)cccc3[nH]2)c(-c2ccccc2)s1` (stereo not shown) [Ex. 1.123], the IC50 at human orexin-1 receptor was found to be 147 nM; at human orexin-2 receptor it was 70 nM.
The matching figures for `Cc1nc(C(=O)N2CC[C@H](C)[C@H]2c2nc3ccccc3[nH]2)c(-c2cccc(Cl)c2)s1` [Ex. 4.6]: 29 nM and 3890 nM.
On to `Cc1c(Cl)ccc2[nH]c([C@@H]3[C@@H](C)CCN3C(=O)c3cc(Cl)ccc3-c3ccccc3)nc12` [Ex. 4.162], for which the IC50 on human orexin-1 receptor worked out at 2 nM; on human orexin-2 receptor, 299 nM.
On the same counts, the results for `Cc1ccc(-n2nccn2)c(C(=O)N2CC[C@H](C)[C@H]2c2nc3cc(C)ccc3[nH]2)c1` [Ex. 4.2] are 132 nM and 669 nM.
On to `Cc1nc(C(=O)N2CCC[C@@]2(C)c2nc3c(C)c(C)c(Br)cc3[nH]2)c(-c2cccc(Cl)c2Cl)s1` [Ex. 5.272], for which the IC50 at human orexin-1 receptor came out at 8 nM; on human orexin-2 receptor, 12 nM.
On the same counts, the results for `COc1cc2nc(C3CCCN3C(=O)c3nc(C)sc3-c3ccccc3)[nH]c2cc1OC` (stereo not shown) [Ex. 1.134] are 116 nM and 26 nM.
On the same counts, the results for `C[C@@]1(c2nc3cc(C(F)(F)F)c(Cl)cc3[nH]2)CCCN1C(=O)c1cc(OC(F)(F)F)ccc1-n1nccn1` [Ex. 5.147] are 27 nM and 112 nM.
`C=C1C[C@@H](c2nc3cc(OC)ccc3[nH]2)N(C(=O)c2ccccc2-n2nccn2)C1` [Ex. 6.13]: the results for the IC50 on human orexin-1 receptor and at human orexin-2 receptor were 155 nM and 17 nM, respectively.
The matching figures for `Cc1ccc(-c2ccc(C)cc2C(=O)N2CCC[C@@]2(C)c2nc3c(C)c(C)ccc3[nH]2)cc1` [Ex. 5.113]: 12 nM and 15 nM.
The matching figures for `Cc1ccc2[nH]c([C@@H]3[C@@H](C)CCN3C(=O)c3nc(C)sc3-c3cccc(Cl)c3)nc2c1` [Ex. 4.3]: 8 nM and 1350 nM.
Consider `C=C1C[C@@H](c2nc3cc(C(C)(C)C)ccc3[nH]2)N(C(=O)c2nc(C)ccc2-n2cccn2)C1` [Ex. 6.173], for which the results for the IC50 on human orexin-1 receptor and at human orexin-2 receptor were 842 nM and 64 nM, respectively.
As to `C=C1C[C@@H](c2nc3cc(C)c(C)cc3[nH]2)N(C(=O)c2cc(F)ccc2-n2nccn2)C1` [Ex. 6.192], the IC50 turned out to be 48 nM on human orexin-1 receptor and 7 nM at human orexin-2 receptor.
As for `COc1ccc(-c2cccc(F)c2)c(C(=O)N2CCC[C@@]2(C)c2nc3ccc(Cl)c(C)c3[nH]2)c1F` [Ex. 5.300], the results for the IC50 on human orexin-1 receptor and on human orexin-2 receptor were 10 nM and 18 nM, respectively.
In the case of `CSc1ccc2nc([C@@H]3CCCN3C(=O)c3nc(C4CC4)sc3-c3ccc(C)cc3)[nH]c2c1` [Ex. 1.41], the IC50 worked out at 115 nM at human orexin-1 receptor and 64 nM at human orexin-2 receptor.
`CSc1ccc2nc([C@@H]3CCCN3C(=O)c3ccc(C)cc3-n3nccn3)[nH]c2c1` [Ex. 1.153]: the values for the IC50 on human orexin-1 receptor and at human orexin-2 receptor were 40 nM and 3 nM, respectively.
Regarding `Cc1ccc(-n2cccn2)c(C(=O)N2CCC[C@@]2(C)c2nc3cc(C(F)(F)F)c(Cl)cc3[nH]2)c1` [Ex. 5.138], the IC50 was 2 nM on human orexin-1 receptor and 10 nM on human orexin-2 receptor.
The matching figures for `Cc1cccc(-c2nc(C(=O)N3CCC[C@@]3(C)c3nc4c(C)c(Cl)ccc4[nH]3)c(-c3ccc(F)cc3)s2)c1` [Ex. 5.230]: 21 nM and 530 nM.
On the same counts, the results for `Cc1ccc(-n2nccn2)c(C(=O)N2CCC[C@@]2(C)c2nc3c(C(F)(F)F)cccc3[nH]2)c1` [Ex. 5.17] are 11 nM and 76 nM.
On the same counts, the results for `C=C1C[C@@H](c2nc3cc(Cl)c(C)cc3[nH]2)N(C(=O)c2nc(C)sc2-c2ccc(C)c(C)c2)C1` [Ex. 6.55] are 5 nM and 1 nM.
For the compound `COc1cccc(-c2ccc(C)cc2C(=O)N2CCC[C@@]2(C)c2nc3cc(C)c(C)cc3[nH]2)c1` [Ex. 5.93], the IC50 at human orexin-1 receptor came out at 15 nM; at human orexin-2 receptor it was 19 nM.
In the case of `COc1cc2nc([C@]3(C)CCCN3C(=O)c3nc(C)ccc3-n3nccn3)[nH]c2cc1OC` [Ex. 5.85], the results for the half-maximal inhibitory concentration (IC50) on human orexin-1 receptor and on human orexin-2 receptor were 316 nM and 114 nM, respectively.
As for `C=C1C[C@@H](c2nc3ccc(Cl)c(C)c3[nH]2)N(C(=O)c2cc(C(F)(F)F)ccc2-n2nccn2)C1` [Ex. 6.129], the figures for the IC50 at human orexin-1 receptor and at human orexin-2 receptor were 215 nM and 39 nM, respectively.
`COc1cc2nc([C@@H]3[C@@H](C)CCN3C(=O)c3cc(C(F)(F)F)ccc3-n3nccn3)[nH]c2cc1OC` [Ex. 4.47]: the values for the IC50 on human orexin-1 receptor and at human orexin-2 receptor were 176 nM and 281 nM, respectively.
Turning to `Cc1nc(C(=O)N2CCC[C@@]2(C)c2nc3c(C)c(C)c(Br)cc3[nH]2)c(-c2ccc(F)cc2)s1` [Ex. 5.276], the IC50 on human orexin-1 receptor is 3 nM; on human orexin-2 receptor, 8 nM.
Take `C=C1CC(c2nc3cc(Cl)c(C)cc3[nH]2)N(C(=O)c2nc(C3CC3)sc2-c2cccc(C)c2)C1` (racemic) [Ex. 6.95]: the IC50 was 9 nM at human orexin-1 receptor and 2 nM on human orexin-2 receptor.
`Cc1nc(C(=O)N2CCC[C@@]2(C)c2nc3cc(OC(F)(F)F)ccc3[nH]2)c(-c2cc(F)cc(F)c2)s1` [Ex. 5.246]: the values for the IC50 at human orexin-1 receptor and at human orexin-2 receptor were 28 nM and 533 nM, respectively.
For the compound `C[C@@]1(c2nc3cc(C(F)(F)F)ccc3[nH]2)CCCN1C(=O)c1cc(Cl)ccc1-n1nccn1` [Ex. 5.166], the half-inhibitory concentration (IC50) on human orexin-1 receptor is 13 nM; at human orexin-2 receptor it was 59 nM.
For the compound `Cc1cc(C(=O)N2CCC[C@@]2(C)c2nc3c(C)cccc3[nH]2)c(-n2nccn2)cc1C` [Ex. 5.51], the IC50 at human orexin-1 receptor is 10 nM; on human orexin-2 receptor it was 18 nM.
On to `Cc1cccc(-c2ccccc2C(=O)N2CCC[C@@]2(C)c2nc3c(C)c(C)ccc3[nH]2)c1` [Ex. 5.118], for which the 50% inhibitory concentration (IC50) amounted to 25 nM at human orexin-1 receptor and 35 nM on human orexin-2 receptor.
Take `C=C1C[C@@H](c2nc3c(OC)ccc(OC)c3[nH]2)N(C(=O)c2nc(C)sc2-c2ccc(C)c(C)c2)C1` [Ex. 6.48]: the IC50 on human orexin-1 receptor came to 14 nM; on human orexin-2 receptor it was 7 nM.
Regarding `COc1cc2nc([C@]3(C)CCCN3C(=O)c3ncsc3-c3cccc(Cl)c3)[nH]c2cc1OC` [Ex. 5.80], the values for the IC50 at human orexin-1 receptor and on human orexin-2 receptor were 548 nM and 360 nM, respectively.
`Cc1ccc(-n2nccn2)c(C(=O)N2CCC[C@@]2(C)c2nc3c(C)c(Cl)ccc3n2C)c1` [Ex. 7.3]: the IC50 on human orexin-1 receptor was 1 nM; at human orexin-2 receptor it was 3 nM.
On the same counts, the results for `COc1ccc(-c2cccc(C#N)c2)c(C(=O)N2CCC[C@@]2(C)c2nc3c(C)c(Cl)ccc3[nH]2)c1F` [Ex. 5.307] are 20 nM and 49 nM.
Turning to `Cc1c(Cl)ccc2[nH]c([C@@H]3[C@@H](C)CCN3C(=O)c3c(F)cccc3-c3ccccc3)nc12` [Ex. 4.169], the IC50 worked out at 4 nM at human orexin-1 receptor and 892 nM at human orexin-2 receptor.

Usually IC50 stands for the concentration needed to halve the response being measured.
